Data taken from publication PMC5218480 (PLoS ONE, 2017).

Test system: MV-4-11 cells
Test: Gene expression microarray analysis (Affymetrix PrimeView) and GSEA
Assay type: cell-based, human
Parameters: RFU PODN (11730768_x_at) / Fold change /veh PODN (11730768_x_at) / RFU LINC00158 (11744669_a_at) / Fold change /veh LINC00158 (11744669_a_at) / RFU DUSP10 (11751237_a_at) / Fold change /veh DUSP10 (11751237_a_at) / RFU ID3 (11757404_x_at) / Fold change /veh ID3 (11757404_x_at) / RFU PLEKHG5 (11737974_s_at) / Fold change /veh PLEKHG5 (11737974_s_at) / RFU LRRC4B (11730491_at) / Fold change /veh LRRC4B (11730491_at) / RFU GIMAP4 (11747438_a_at) / Fold change /veh GIMAP4 (11747438_a_at) / RFU KRT8 (11758183_x_at) / Fold change /veh KRT8 (11758183_x_at) / RFU CNN1 (11734310_a_at) / Fold change /veh CNN1 (11734310_a_at) / RFU VPS37D (11726825_at) / Fold change /veh VPS37D (11726825_at) / RFU C10orf10 (11716522_x_at) / Fold change /veh C10orf10 (11716522_x_at) / RFU KIR2DL2 /// KIR2DL4 /// KIR2DL5A /// KIR2DL5B /// KIR2DS1 /// KIR2DS2 /// KIR2DS3 /// KIR2DS4 /// KIR3DL3 /// KIR3DL3 /// KIR3DS1 (11738374_at) / Fold change /veh KIR2DL2 /// KIR2DL4 /// KIR2DL5A /// KIR2DL5B /// KIR2DS1 /// KIR2DS2 /// KIR2DS3 /// KIR2DS4 /// KIR3DL3 /// KIR3DL3 /// KIR3DS1 (11738374_at) / RFU C1QL1 (11718748_at) / Fold change /veh C1QL1 (11718748_at) / RFU TMPRSS4 (11747572_a_at) / Fold change /veh TMPRSS4 (11747572_a_at) / RFU HAMP (11756126_x_at) / Fold change /veh HAMP (11756126_x_at) / RFU RNFT2 (11725882_a_at) / Fold change /veh RNFT2 (11725882_a_at) / RFU NR4A2 (11747474_a_at) / Fold change /veh NR4A2 (11747474_a_at) / RFU ABCC12 (11746883_a_at) / Fold change /veh ABCC12 (11746883_a_at) / RFU TMEM136 (11760407_x_at) / Fold change /veh TMEM136 (11760407_x_at) / RFU CLDN22 /// WWC2 (11732394_at) / Fold change /veh CLDN22 /// WWC2 (11732394_at) / RFU HLA-DPB1 (11760878_x_at) / Fold change /veh HLA-DPB1 (11760878_x_at) / RFU SPINT1 (11716480_a_at) / Fold change /veh SPINT1 (11716480_a_at) / RFU GAP43 (11754022_s_at) / Fold change /veh GAP43 (11754022_s_at) / RFU A4GNT (11735810_at) / Fold change /veh A4GNT (11735810_at) / RFU PRB3 (11715151_x_at) / Fold change /veh PRB3 (11715151_x_at) / RFU TUBB4B (11761932_at) / Fold change /veh TUBB4B (11761932_at) / RFU CAPN14 (11732068_a_at) / Fold change /veh CAPN14 (11732068_a_at) / RFU TMCC2 (11721928_a_at) / Fold change /veh TMCC2 (11721928_a_at) / RFU IRGQ (11745062_a_at) / Fold change /veh IRGQ (11745062_a_at) / RFU FAM174B (11720279_a_at) / Fold change /veh FAM174B (11720279_a_at) / RFU TMPRSS4 (11748680_a_at) / Fold change /veh TMPRSS4 (11748680_a_at) / RFU FAM212B (11763350_a_at) / Fold change /veh FAM212B (11763350_a_at) / RFU PLEKHG5 (11743358_a_at) / Fold change /veh PLEKHG5 (11743358_a_at) / RFU ZSCAN30 (11745921_a_at) / Fold change /veh ZSCAN30 (11745921_a_at) / RFU CMKLR1 (11741424_a_at) / Fold change /veh CMKLR1 (11741424_a_at) / RFU LOC101060620 /// MAPK8IP1 (11723275_at) / Fold change /veh LOC101060620 /// MAPK8IP1 (11723275_at) / RFU SPTSSB (11747773_x_at) / Fold change /veh SPTSSB (11747773_x_at) / RFU PRSS12 (11739890_at) / Fold change /veh PRSS12 (11739890_at) / RFU BIN1 (11741810_x_at) / Fold change /veh BIN1 (11741810_x_at) / RFU WNT11 (11732464_a_at) / Fold change /veh WNT11 (11732464_a_at) / RFU C10orf10 (11716521_a_at) / Fold change /veh C10orf10 (11716521_a_at) / RFU C5orf56 (11738089_at) / Fold change /veh C5orf56 (11738089_at) / RFU CYB561 (11721691_x_at) / Fold change /veh CYB561 (11721691_x_at) / RFU ANKRD19P (11752326_a_at) / Fold change /veh ANKRD19P (11752326_a_at) / RFU OR2T12 /// OR2T33 /// OR2T8 (11738714_s_at) / Fold change /veh OR2T12 /// OR2T33 /// OR2T8 (11738714_s_at) / RFU VCAN (11748164_a_at) / Fold change /veh VCAN (11748164_a_at) / RFU JSRP1 (11732532_at) / Fold change /veh JSRP1 (11732532_at) / RFU KRTAP10-11 (11738290_x_at) / Fold change /veh KRTAP10-11 (11738290_x_at) / RFU MYO3A (11730013_a_at) / Fold change /veh MYO3A (11730013_a_at) / RFU EBF3 (11725865_a_at) / Fold change /veh EBF3 (11725865_a_at) / RFU CAMK2N1 (11719241_x_at) / Fold change /veh CAMK2N1 (11719241_x_at) / RFU C5orf56 (11738088_a_at) / Fold change /veh C5orf56 (11738088_a_at) / RFU OLFML3 (11715873_a_at) / Fold change /veh OLFML3 (11715873_a_at) / RFU LOC100653217 /// NTM (11731650_a_at) / Fold change /veh LOC100653217 /// NTM (11731650_a_at) / RFU MAPK11 (11762145_a_at) / Fold change /veh MAPK11 (11762145_a_at) / RFU FIZ1 (11724087_x_at) / Fold change /veh FIZ1 (11724087_x_at) / RFU OASL (11726364_x_at) / Fold change /veh OASL (11726364_x_at) / RFU SOX15 (11748057_x_at) / Fold change /veh SOX15 (11748057_x_at) / RFU CD79A (11719716_a_at) / Fold change /veh CD79A (11719716_a_at) / RFU HIST1H1D (11736915_at) / Fold change /veh HIST1H1D (11736915_at) / RFU CASKIN2 (11723855_a_at) / Fold change /veh CASKIN2 (11723855_a_at) / RFU LOC730098 (11760151_x_at) / Fold change /veh LOC730098 (11760151_x_at) / RFU OR4N2 (11742367_at) / Fold change /veh OR4N2 (11742367_at) / RFU PRRT2 (11749266_a_at) / Fold change /veh PRRT2 (11749266_a_at) / RFU SNX32 (11753110_a_at) / Fold change /veh SNX32 (11753110_a_at) / RFU CDHR5 (11726645_a_at) / Fold change /veh CDHR5 (11726645_a_at) / RFU RCAN1 (11760418_a_at) / Fold change /veh RCAN1 (11760418_a_at) / RFU FAM167A (11723789_a_at) / Fold change /veh FAM167A (11723789_a_at) / RFU FAM26E (11764081_at) / Fold change /veh FAM26E (11764081_at) / RFU ISYNA1 (11749810_s_at) / Fold change /veh ISYNA1 (11749810_s_at) / RFU ACY1 (11761880_at) / Fold change /veh ACY1 (11761880_at) / RFU 11764098_at / Fold change /veh 11764098_at / RFU SAMD14 (11745864_x_at) / Fold change /veh SAMD14 (11745864_x_at) / RFU NPB (11741838_a_at) / Fold change /veh NPB (11741838_a_at) / RFU TMPRSS6 (11731388_a_at) / Fold change /veh TMPRSS6 (11731388_a_at) / RFU KRTAP10-2 (11738614_at) / Fold change /veh KRTAP10-2 (11738614_at) / RFU ARHGAP8 /// PRR5-ARHGAP8 (11727945_x_at) / Fold change /veh ARHGAP8 /// PRR5-ARHGAP8 (11727945_x_at) / RFU KRTAP5-7 /// NADSYN1 (11734609_at) / Fold change /veh KRTAP5-7 /// NADSYN1 (11734609_at) / RFU RASL12 (11751679_a_at) / Fold change /veh RASL12 (11751679_a_at) / RFU CDKN2B (11736163_a_at) / Fold change /veh CDKN2B (11736163_a_at) / RFU PRF1 (11729649_at) / Fold change /veh PRF1 (11729649_at) / RFU, ZNF638 /// ZNF638-IT1 / Fold change vs veh, ZNF638 /// ZNF638-IT1 / RFU, PANK3 / Fold change vs veh, PANK3 / RFU, SH3YL1 / Fold change vs veh, SH3YL1 / RFU, ZEB2 / Fold change vs veh, ZEB2 / RFU, NRIP1 / Fold change vs veh, NRIP1 / RFU, PTTG1IP / Fold change vs veh, PTTG1IP / RFU, CAPN2 / Fold change vs veh, CAPN2 / RFU, MED14 / Fold change vs veh, MED14 / RFU, SNORA58 / Fold change vs veh, SNORA58 / RFU, C1orf63 / Fold change vs veh, C1orf63 / RFU, LRRFIP1 / Fold change vs veh, LRRFIP1 / RFU, NDUFAF7 / Fold change vs veh, NDUFAF7 / RFU, SLC12A2 / Fold change vs veh, SLC12A2 / RFU, IBTK / Fold change vs veh, IBTK / RFU, ESF1 / Fold change vs veh, ESF1 / Fold change vs veh, TMEM50B / RFU, TAOK1 / Fold change vs veh, TAOK1 / RFU, ACBD3 / Fold change vs veh, ACBD3 / RFU, TMA16 / Fold change vs veh, TMA16 / RFU, RWDD3 / Fold change vs veh, RWDD3 / RFU, BCAT1 / Fold change vs veh, BCAT1 / RFU, EDEM3 / Fold change vs veh, EDEM3 / RFU, TMEM33 / Fold change vs veh, TMEM33 / RFU, WDR75 / Fold change vs veh, WDR75 / RFU, AHCTF1 / Fold change vs veh, AHCTF1 / RFU, TFRC / Fold change vs veh, TFRC / RFU, ZDHHC17 / Fold change vs veh, ZDHHC17 / RFU, NOM1 / Fold change vs veh, NOM1 / RFU, ARL8B / Fold change vs veh, ARL8B / RFU, ZBTB11 / Fold change vs veh, ZBTB11 / RFU, TAMM41 / Fold change vs veh, TAMM41 / RFU, KIAA1704 /// LOC100996395 / Fold change vs veh, KIAA1704 /// LOC100996395 / RFU, ING1 / Fold change vs veh, ING1 / RFU, TRMT61B / Fold change vs veh, TRMT61B / RFU, FUBP3 / Fold change vs veh, FUBP3 / RFU, TP53 / Fold change vs veh, TP53 / RFU, TNKS2 / Fold change vs veh, TNKS2 / RFU, ZFP14 / Fold change vs veh, ZFP14 / RFU, ACTR2 / Fold change vs veh, ACTR2 / RFU, PPP3R1 / Fold change vs veh, PPP3R1 / RFU, PIK3R1 / Fold change vs veh, PIK3R1 / RFU, HNRNPA1 / Fold change vs veh, HNRNPA1 / RFU, RNF170 / Fold change vs veh, RNF170 / RFU, ZNF28 / Fold change vs veh, ZNF28 / RFU, RNGTT / Fold change vs veh, RNGTT / RFU, OGT / Fold change vs veh, OGT / RFU, BRD1 / Fold change vs veh, BRD1 / RFU, MARS / Fold change vs veh, MARS / RFU, ZNF655 / Fold change vs veh, ZNF655 / RFU, FAHD1 / Fold change vs veh, FAHD1 / RFU, BDP1 / Fold change vs veh, BDP1 / RFU, LRRCC1 / Fold change vs veh, LRRCC1 / RFU, ARID1A / Fold change vs veh, ARID1A / RFU, ZNF146 / Fold change vs veh, ZNF146 / RFU, ZNF330 / Fold change vs veh, ZNF330 / RFU, GPN3 / Fold change vs veh, GPN3 / RFU, C9orf123 / Fold change vs veh, C9orf123 / RFU, N4BP2L2 / Fold change vs veh, N4BP2L2 / RFU, ARFIP1 / Fold change vs veh, ARFIP1 / RFU, FAM179B / Fold change vs veh, FAM179B / RFU, BCL10 / Fold change vs veh, BCL10 / RFU, UHRF1BP1L / Fold change vs veh, UHRF1BP1L / RFU, BET1 / Fold change vs veh, BET1 / RFU, CNOT2 / Fold change vs veh, CNOT2 / RFU, ZNF268 / Fold change vs veh, ZNF268 / Fold change vs veh, ZNF507 / RFU, DGCR2 / Fold change vs veh, DGCR2 / RFU, WDSUB1 / Fold change vs veh, WDSUB1 / Fold change vs veh, HSP90B1 /// MIR3652 / RFU, ADSS / Fold change vs veh, ADSS / RFU, GK / Fold change vs veh, GK / RFU, ZNF148 / Fold change vs veh, ZNF148 / RFU, TAF9 / Fold change vs veh, TAF9 / RFU, SLC1A5 / Fold change vs veh, SLC1A5 / RFU, SLMO2 / Fold change vs veh, SLMO2 / RFU, ABCC4 / Fold change vs veh, ABCC4 / RFU, LOC101060439 /// RAP1B / Fold change vs veh, LOC101060439 /// RAP1B / RFU, RFX7 / Fold change vs veh, RFX7 / RFU, GTPBP10 / Fold change vs veh, GTPBP10 / RFU, CNEP1R1 / Fold change vs veh, CNEP1R1 / RFU, BIVM-ERCC5 /// ERCC5 / Fold change vs veh, BIVM-ERCC5 /// ERCC5 / RFU, ILF3 / Fold change vs veh, ILF3 / RFU 11762660_at / Fold change /veh 11762660_at / RFU VCAN (11757783_s_at) / Fold change /veh VCAN (11757783_s_at) / RFU DDX43 (11728927_at) / Fold change /veh DDX43 (11728927_at) / RFU KRT8 (11758188_x_at) / Fold change /veh KRT8 (11758188_x_at) / RFU NKD1 (11759106_at) / Fold change /veh NKD1 (11759106_at) / RFU SRD5A1 (11742802_a_at) / Fold change /veh SRD5A1 (11742802_a_at) / RFU TPSAB1 /// TPSB2 (11721975_s_at) / Fold change /veh TPSAB1 /// TPSB2 (11721975_s_at) / RFU GSTM3 (11746129_a_at) / Fold change /veh GSTM3 (11746129_a_at) / RFU IL23R (11737362_x_at) / Fold change /veh IL23R (11737362_x_at) / RFU TMEM51 (11727254_a_at) / Fold change /veh TMEM51 (11727254_a_at) / RFU PIWIL2 (11732686_x_at) / Fold change /veh PIWIL2 (11732686_x_at) / RFU ORM1 (11744905_x_at) / Fold change /veh ORM1 (11744905_x_at) / RFU CCDC152 (11743942_at) / Fold change /veh CCDC152 (11743942_at) / RFU ECM1 (11717891_a_at) / Fold change /veh ECM1 (11717891_a_at) / RFU IL23R (11748794_a_at) / Fold change /veh IL23R (11748794_a_at) / RFU TNFAIP8L3 (11732012_x_at) / Fold change /veh TNFAIP8L3 (11732012_x_at) / RFU MBOAT4 (11741988_at) / Fold change /veh MBOAT4 (11741988_at) / RFU 11764193_at / Fold change /veh 11764193_at / RFU TMEM53 (11763286_at) / Fold change /veh TMEM53 (11763286_at) / RFU MAGEB2 (11727129_at) / Fold change /veh MAGEB2 (11727129_at) / RFU TMEM200A (11744735_a_at) / Fold change /veh TMEM200A (11744735_a_at) / RFU CCDC152 (11751479_a_at) / Fold change /veh CCDC152 (11751479_a_at) / RFU FAM211A (11726209_a_at) / Fold change /veh FAM211A (11726209_a_at) / RFU RGS16 (11746705_a_at) / Fold change /veh RGS16 (11746705_a_at) / RFU VCAN (11755009_s_at) / Fold change /veh VCAN (11755009_s_at) / RFU RHOB (11743442_s_at) / Fold change /veh RHOB (11743442_s_at) / RFU RGS16 (11720943_a_at) / Fold change /veh RGS16 (11720943_a_at) / RFU RGS16 (11720944_at) / Fold change /veh RGS16 (11720944_at) / RFU, VPS4B / Fold change vs veh, VPS4B / RFU, CREB1 / Fold change vs veh, CREB1 / RFU, DNAJC13 / Fold change vs veh, DNAJC13 / RFU, GNAQ / Fold change vs veh, GNAQ / RFU, CDK5R1 / Fold change vs veh, CDK5R1 / RFU, ZRANB3 / Fold change vs veh, ZRANB3 / RFU, CUL4A / Fold change vs veh, CUL4A / RFU, CCNY / Fold change vs veh, CCNY / RFU, UFL1 / Fold change vs veh, UFL1 / RFU, COG3 / Fold change vs veh, COG3 / RFU, DIAPH2 / Fold change vs veh, DIAPH2 / RFU, SKA2 / Fold change vs veh, SKA2 / RFU, AFF3 / Fold change vs veh, AFF3 / RFU, LMF1 / Fold change vs veh, LMF1 / RFU, IPO11 / Fold change vs veh, IPO11 / RFU, DFFB / Fold change vs veh, DFFB / RFU, FOXP1 / Fold change vs veh, FOXP1 / RFU, CARD8 / Fold change vs veh, CARD8 / RFU, STRN3 / Fold change vs veh, STRN3 / RFU, ADK / Fold change vs veh, ADK / RFU, RASSF2 / Fold change vs veh, RASSF2 / RFU, WIPF1 / Fold change vs veh, WIPF1 / RFU, LARP1B / Fold change vs veh, LARP1B / RFU, RASA1 / Fold change vs veh, RASA1 / RFU, RB1 / Fold change vs veh, RB1 / RFU, PPFIA1 / Fold change vs veh, PPFIA1 / RFU, MAT2A / Fold change vs veh, MAT2A / RFU, CCT5 / Fold change vs veh, CCT5 / RFU, WDR92 / Fold change vs veh, WDR92 / RFU, CUX1 / Fold change vs veh, CUX1 / RFU, TTC7A / Fold change vs veh, TTC7A / RFU, TMEM135 / Fold change vs veh, TMEM135 / RFU, DEPTOR / Fold change vs veh, DEPTOR / RFU, CPM / Fold change vs veh, CPM / RFU, DNAJB6 / Fold change vs veh, DNAJB6 / RFU, CACNA2D3 / Fold change vs veh, CACNA2D3 / RFU, DTX4 / Fold change vs veh, DTX4 / RFU, TFCP2 / Fold change vs veh, TFCP2 / RFU, GMCL1 /// GMCL1P1 / Fold change vs veh, GMCL1 /// GMCL1P1 / RFU, AEBP2 / Fold change vs veh, AEBP2 / RFU, SNHG1 /// SNORD22 /// SNORD25 /// SNORD26 /// SNORD27 /// SNORD28 /// SNORD29 /// SNORD31 / Fold change vs veh, SNHG1 /// SNORD22 /// SNORD25 /// SNORD26 /// SNORD27 /// SNORD28 /// SNORD29 /// SNORD31 / Fold change (Aza/veh), C12orf56 (ProbeSet 11735607_a_at) / Fold change (ACY-1035/veh), C12orf56 (ProbeSet 11735607_a_at) / Fold change (Aza/veh), FGFR1OP (ProbeSet 11751329_s_at) / Fold change (ACY-1035/veh), FGFR1OP (ProbeSet 11751329_s_at) / Fold change (Aza/veh), VPS36 (ProbeSet 11739960_a_at) / Fold change (ACY-1035/veh), VPS36 (ProbeSet 11739960_a_at) / RFU SYPL1 (11715823_x_at) / Fold change /veh SYPL1 (11715823_x_at) / RFU IGFBP7 (11715501_s_at) / Fold change /veh IGFBP7 (11715501_s_at) / RFU REEP3 (11722064_at) / Fold change /veh REEP3 (11722064_at) / RFU IGLL1 (11728026_x_at) / Fold change /veh IGLL1 (11728026_x_at): dose or concentration left out as unconfirmed
Details: MV-4-11 cells, 48 hours

Nc1ncn([C@@H]2O[C@H](CO)[C@@H](O)[C@H]2O)c(=O)n1 [azacitidine]
Fold change /veh SNX32 (11753110_a_at): 1.11
